pEC50, pKd: −log10 of the molar value. Calls of active or inactive are those of the source. No cut-off for these calls is given here.
Tests used:
[1] = Selectivity index, ratio of CC50 for human MT4 cells to EC50 for HIV-2 ROD infected in human MT-4 cells; type: toxicity, cell-based; conditions: read-out: Selectivity Index
[2] = molecular target: Human immunodeficiency virus type 1 reverse transcriptase (Human immunodeficiency virus 1) (UniProt Q72547); assay: Inhibition of HIV1 reverse transcriptase at 13 nM incubated for 1 hr by ELISA analysis
[3] = system: Human immunodeficiency virus 1; assay: Anti-HIV activity against wild type HIV-1 IIIB infected in human MT4 cells assessed as protection against virus-induced cytopathic effect incubated for 5 days by spectrophotometric based MTT assay; type: functional, organism-based; conditions: Human immunodeficiency virus 1, IIIB, MT4, 120 h
[4] = system: Human immunodeficiency virus 1; assay: Antiviral activity against pseudotyped HIV-1 expressing luciferase-reporter transfected in HEK293T cells assessed as viral inhibition at early stage incubated for 48 hrs by Single-round infection assay; type: functional, organism-based
[5] = system: Human immunodeficiency virus 2; assay: Anti-HIV activity against HIV-2 ROD infected in human MT-4 cells assessed as protection against virus-induced cytopathic effect incubated for 5 days by spectrophotometric based MTT assay; type: functional, organism-based; conditions: Human immunodeficiency virus 2, ROD, MT4, 120 h
[6] = system: Human immunodeficiency virus 1; assay: Antiviral activity against pseudotyped HIV-1 expressing luciferase-reporter transfected in HEK293T cells assessed as increase in p24 level in progeny virions by ELISA analysis; type: functional, organism-based
[7] = Selectivity ratio of EC50 for wild type HIV-1 IIIB infected in human MT4 cells to EC50 for HIV-2 ROD infected in human MT-4 cells assessed as protection against virus-induced cytopathic effect incubated for 5 days by spectrophotometric based MTT assay; type: functional; conditions: time 5 day
[8] = Selectivity index, ratio of CC50 for human MT4 cells to EC50 for wild type HIV-1 IIIB infected in human MT4 cells; type: toxicity, cell-based; conditions: read-out: Selectivity Index
[9] = molecular target: T1, Structural capsid protein (Human immunodeficiency virus 1, UniProt Q76129); assay: Binding affinity to hexameric HIV-1 NL4.3 capsid protein assessed as dissociation constant by SPR assay
T1 sequence (Q76129 whole entry): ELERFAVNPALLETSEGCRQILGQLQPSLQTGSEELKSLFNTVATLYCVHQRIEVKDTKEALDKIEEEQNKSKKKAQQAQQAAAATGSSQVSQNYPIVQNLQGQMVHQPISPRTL

[10] = molecular target: T1, Structural capsid protein; assay: Binding affinity to monomeric HIV-1 NL4.3 capsid protein assessed as dissociation constant by SPR assay
[11] = system: Human immunodeficiency virus 1; assay: Antiviral activity against pseudotyped HIV-1 expressing luciferase-reporter transfected in HEK293T cells assessed as viral inhibition at late stage incubated for 48 hrs by Single-round infection assay; type: functional, organism-based
[12] = molecular target: Structural capsid protein (Human immunodeficiency virus 1) (UniProt Q76129); assay: Binding affinity to HIV-1 hexameric capsid protein assessed as reduction in CPSF6 binding to capsid protein by competition assay based SPR analysis; conditions: filed as modulator
Chain of Structural capsid protein (Human immunodeficiency virus 1) (Q76129 as listed by the source): as the sequence (Q76129 whole entry) above

[13] = molecular target: Structural capsid protein (Human immunodeficiency virus 1) (UniProt Q76129); assay: Binding affinity to HIV-1 hexameric capsid protein assessed as reduction in NUP153 binding to capsid protein by competition assay based SPR analysis; conditions: filed as modulator
MT4 = assay: Cytotoxicity against human MT4 cells assessed as reduction in cell viability incubated for 5 days by spectrophotometric based MTT assay; type: functional; conditions: MT4, 120 h, time 5 day
[14] = molecular target: Human immunodeficiency virus type 1 reverse transcriptase (Human immunodeficiency virus 1) (UniProt Q72547); assay: Inhibition of HIV1 reverse transcriptase at 20 nM incubated for 1 hr by ELISA analysis
[15] = molecular target: Structural capsid protein (Human immunodeficiency virus 1) (UniProt Q76129); assay: Binding affinity to hexameric HIV-1 NL4.3 capsid protein assessed as dissociation rate (Koff) by SPR assay; conditions: filed as modulator
[16] = molecular target: Structural capsid protein (Human immunodeficiency virus 1) (UniProt Q76129); assay: Binding affinity to monomeric HIV-1 NL4.3 capsid protein assessed as residence time by SPR assay; conditions: filed as modulator
[17] = Metabolic stability in human liver microsomes assessed as intrinsic clearance at 1 uM incubated for 60 mins by LC-MS/MS analysis; type: ADME, Microsome; conditions: read-out: CLH
[18] = molecular target: Structural capsid protein (Human immunodeficiency virus 1) (UniProt Q76129); assay: Binding affinity to monomeric HIV-1 NL4.3 capsid protein assessed as dissociation rate (Koff) by SPR assay; conditions: filed as modulator
[19] = molecular target: Structural capsid protein (Human immunodeficiency virus 1) (UniProt Q76129); assay: Binding affinity to hexameric HIV-1 NL4.3 capsid protein assessed as residence time by SPR assay; conditions: filed as modulator

Structure (SMILES)	selectivity ratio [1]	pEC50 [3]	pEC50 [5]	Ratio EC50 [7]	selectivity ratio [8]	CC50 (MT4) [µM]	also measured
CN(C(=O)[C@H](Cc1cc(F)cc(F)c1)NC(=O)Cc1c[nH]c2ccc([N+](=O)[O-])cc12)c1ccc2scnc2c1	220	8.20	6.89	0.05	4460	28.4	inhibition [2]: inactive; Activity [4]: Active; Activity [6]: Active; pKd [9]: 7.06; pKd [10]: 6.82; Activity [11]: Active; Activity [12]: Active; Activity [13]: Active
Cc1[nH]c2ccccc2c1CC(=O)N[C@@H](Cc1cc(F)cc(F)c1)C(=O)N(C)c1ccc2scnc2c1	32.8	6.57	6.05	0.3	108	29.1	
Cc1cc(C)n(CC(=O)N[C@@H](Cc2cc(F)cc(F)c2)C(=O)N(C)c2ccc3scnc3c2)n1	> 84.5	6.57	5.51	0.09	> 962	> 259	
CN(C(=O)[C@H](Cc1cc(F)cc(F)c1)NC(=O)Cc1c[nH]c2ccc(Cl)cc12)c1ccc2scnc2c1	150	7.79	6.80	0.1	1450	23.7	
CN(C(=O)[C@H](Cc1cc(F)cc(F)c1)NC(=O)Cc1c[nH]c2ccc(F)cc12)c1ccc2scnc2c1	177	7.99	6.84	0.07	2510	25.5	
COc1ccc2[nH]c(C)c(CC(=O)N[C@@H](Cc3cc(F)cc(F)c3)C(=O)N(C)c3ccc4scnc4c3)c2c1	81	7.48	6.44	0.09	900	29.5	
CN(C(=O)[C@H](Cc1cc(F)cc(F)c1)NC(=O)Cc1c[nH]c2cc(Br)ccc12)c1ccc2scnc2c1	339	7.56	7.16	0.4	848	23.3	
CN(C(=O)[C@H](Cc1cc(F)cc(F)c1)NC(=O)Cc1c[nH]c2ccc(Br)cc12)c1ccc2scnc2c1	137	7.49	6.77	0.19	718	23.4	
Cc1ccc2[nH]cc(CC(=O)N[C@@H](Cc3cc(F)cc(F)c3)C(=O)N(C)c3ccc4scnc4c3)c2c1	137	7.37	6.71	0.22	621	26.4	
Cc1[nH]c2ccc(Cl)cc2c1CC(=O)N[C@@H](Cc1cc(F)cc(F)c1)C(=O)N(C)c1ccc2scnc2c1	41.7	6.70	6.20	0.31	133	26.4	
Cc1[nH]c2ccc(F)cc2c1CC(=O)N[C@@H](Cc1cc(F)cc(F)c1)C(=O)N(C)c1ccc2scnc2c1	33.4	6.77	6.13	0.23	147	24.9	
CN(C(=O)[C@H](Cc1cc(F)cc(F)c1)NC(=O)Cc1c[nH]c2cccc(Br)c12)c1ccc2scnc2c1	20.5	6.78	5.97	0.15	133	22.2	
CN(C(=O)[C@H](Cc1cc(F)cc(F)c1)NC(=O)Cc1c[nH]c2cc(F)c(F)cc12)c1ccc2scnc2c1	116	8.01	6.69	0.05	2410	23.6	Activity [4]: Active; Activity [6]: Active; pKd [9]: 6.52; pKd [10]: 6.57; Activity [11]: Active; inhibition [14]: inactive; Activity [12]: Active; Activity [13]: Active
COc1ccc2[nH]cc(CC(=O)N[C@@H](Cc3cc(F)cc(F)c3)C(=O)N(C)c3ccc4scnc4c3)c2c1	460	7.65	6.80	0.14	3260	73.2	
COc1ccc(N(C)C(=O)[C@H](Cc2ccccc2)NC(=O)CN2CCN(S(=O)(=O)c3ccc(N)cc3)CC2=O)cc1			7.87			114	K [15]: 2.01 10^-2/s; TIME [16]: 0.00118 h; CLint scaled at 1 µM [17]: 344 mL/min/kg; K [18]: 2.34 10^-1/s; TIME [19]: 0.0138 h
COC(=O)c1c(C)ccn1CC(=O)N[C@@H](Cc1cc(F)cc(F)c1)C(=O)N(C)c1ccc2scnc2c1	66.3	5.99	5.72	0.53	124	127	
CN(C(=O)[C@H](Cc1cc(F)cc(F)c1)NC(=O)Cc1c[nH]c2cc(Cl)ccc12)c1ccc2scnc2c1	197	7.43	6.90	0.29	669	24.8	
COc1ccc2c(CC(=O)N[C@@H](Cc3cc(F)cc(F)c3)C(=O)N(C)c3ccc4scnc4c3)c[nH]c2c1	170	6.90	6.65	0.57	300	38.2	
Cc1cc(C(F)(F)F)nn1CC(=O)N[C@@H](Cc1cc(F)cc(F)c1)C(=O)N(C)c1ccc2scnc2c1	133	6.65	6.04	0.24	543	121	
CN(C(=O)[C@H](Cc1cc(F)cc(F)c1)NC(=O)Cc1c[nH]c2cc(F)ccc12)c1ccc2scnc2c1	153	7.77	6.78	0.1	1500	25.2	
CN(C(=O)[C@H](Cc1cc(F)cc(F)c1)NC(=O)C(=O)c1c[nH]c2ccccc12)c1ccc2scnc2c1	< 0.01	< 4.63	< 4.63		< 0.01	23.6	
CN(C(=O)[C@H](Cc1cc(F)cc(F)c1)NC(=O)Cc1c[nH]c2ccccc12)c1ccc2scnc2c1	153	7.40	6.66	0.18	842	33.4	
CN(C(=O)[C@H](Cc1cc(F)cc(F)c1)NC(=O)Cc1c[nH]c2cccc(F)c12)c1ccc2scnc2c1	47.3	7.27	6.30	0.11	439	23.5	
CN(C(=O)[C@H](Cc1cc(F)cc(F)c1)NC(=O)Cc1c[nH]c2cccc(Cl)c12)c1ccc2scnc2c1	12.7	6.73	5.71	0.1	132	24.4	
